Results from ChEMBL document CHEMBL1136494, “Potent anti-metastatic activity of dimeric sesquiterpene thioalkaloids from the rhizome of Nuphar pumilum” (2003).

Assays:
Format in all cases: functional
Conditions in all cases: Mus musculus
B16 [1] = test: Inhibition of invasion of B16 melanoma cells by 100 uM concentration of the compound
B16 [2] = test: Inhibition of invasion of B16 melanoma cells by 0.1 uM concentration of the compound
B16 [3] = test: Inhibition of invasion of B16 melanoma cells by 1 uM concentration of the compound
B16 [4] = test: Inhibition of invasion of B16 melanoma cells by 10 uM concentration of the compound
B16 [5] = test: Inhibition of lung metastasis of B16 melanoma cells in mice after 20 mg/kg po administration of the compound
B16 [6] = test: Inhibition of invasion of B16 melanoma cells by 0.01 uM concentration of the compound

Row | Compound | inhibition at 100 µM (B16 [1]) [%] | inhibition at 0.1 µM (B16 [2]) [%] | inhibition at 1 µM (B16 [3]) [%] | inhibition at 10 µM (B16 [4]) [%] | inhibition in vivo at 20 mg/kg (B16 [5]) [%] | inhibition at 0.01 µM (B16 [6]) [%]
1 | C[C@@H]1CC[C@@H](c2ccoc2)N2C[C@]3(CC[C@@H]12)CS[C@]1(CC[C@H]2[C@H](C)CC[C@@H](c4ccoc4)N2C1)C3 [NEOTHIOBINUPHARIDINE] | 28.3 | 11.9 | 18.9 | 33.2 | – | –
2 | C[C@@H]1CC[C@H]2[C@H](C)CC[C@@H](c3ccoc3)N2C1 [(-)-7-EPI-DEOXYNUPHARIDINE] | 23 | 5.1 | 25.3 | 20.9 | – | –
3 | COc1cc(C=CC(=O)CC(=O)/C=C/c2ccc(O)c(OC)c2)ccc1O [CURCUMIN] | – | – | – | – | 87 | –
4 | C[C@@H]1CC[C@@H](c2ccoc2)N2C[C@@]3(CC[C@@H]12)C[S+]([O-])[C@]1(CC[C@H]2[C@H](C)CC[C@@H](c4ccoc4)N2C1)C3 (stereo partly drawn) | 0 | -8.1 | 10.2 | 9.2 | – | –
5 | C[C@@H]1CC[C@@H](c2ccoc2)N2C[C@](C)(O)CC[C@@H]12 [NUPHAROLUTINE] | -0.6 | 25.5 | 1.7 | 16.8 | – | –
6 | C[C@H]1CC[C@H]2[C@H](C)CC[C@@H](c3ccoc3)[N@@+]2([O-])C1 | 47.2 | 19.6 | 34.7 | 41.4 | – | –
7 | C[C@@H]1CC[C@@H](c2ccoc2)N2C[C@@]3(CC[C@@H]12)CS[C@@]1(CC[C@H]2[C@H](C)CC[C@@H](c4ccoc4)N2[C@@H]1O)C3 | 86.8 | 57.5 | 66.5 | 84.8 | 94 | 50.9
8 | C[C@@H]1CC[C@@H](c2ccoc2)N2C[C@@]3(CC[C@@H]12)CS[C@@]1(CC[C@H]2[C@H](C)CC[C@@H](c4ccoc4)N2C1)C3 [THIOBINUPHARIDINE] | 22.7 | 5.2 | 9.7 | 15.6 | – | –
9 | C[C@@H]1CC[C@@H](c2ccoc2)N2[C@H]1CC[C@@]1(CS[C@@]3(CC[C@H]4[C@H](C)CC[C@@H](c5ccoc5)N4[C@@H]3O)C1)[C@H]2O | 86.6 | 43.1 | 68.5 | 83.2 | – | 40.3
10 | C[C@@H]1CC[C@@H](c2ccoc2)N2C[C@@]3(CC[C@@H]12)C[S+]([O-])[C@@]1(CC[C@H]2[C@H](C)CC[C@@H](c4ccoc4)N2C1)C3 (stereo partly drawn) | 32.5 | 16.9 | 38.3 | 42.2 | – | –
11 | C[C@@H]1CC[C@@H](c2ccoc2)N2C[C@@]3(CC[C@@H]12)CS[C@]1(CC[C@H]2[C@H](C)CC[C@@H](c4ccoc4)N2[C@@H]1O)C3 [6-HYDROXYTHIONUPHLUTINE B] | 47.1 | 31.6 | 62.7 | 61.4 | – | 5.9
12 | C[C@H]1CC[C@H]2[C@H](C)CC[C@@H](c3ccoc3)N2C1 | 19.1 | -5.1 | 14 | 28.5 | – | –
13 | C[C@@H]1CC[C@@H](c2ccoc2)N2C[C@]3(CC[C@@H]12)C[S+]([O-])[C@]1(CC[C@H]2[C@H](C)CC[C@@H](c4ccoc4)N2C1)C3 (stereo partly drawn) | 15.7 | 10.6 | 18.5 | 12.8 | – | –
